In general, IC50 refers to the concentration needed to halve the response being measured.

In the first experiment the target is human recombinant H-PGDS (Homo sapiens, UniProt O60760). Put plainly: Fluoresecence Intensity h-PGDSTBA Enzyme Assay. The settings on record: 5.0 μM PGH2, 2.5 mM L-Glutathione, 10 min preincubation, 4-parameter fit, highest inhibitor concentration typically 1 μM.
Sequence of human recombinant H-PGDS (O60760 whole entry): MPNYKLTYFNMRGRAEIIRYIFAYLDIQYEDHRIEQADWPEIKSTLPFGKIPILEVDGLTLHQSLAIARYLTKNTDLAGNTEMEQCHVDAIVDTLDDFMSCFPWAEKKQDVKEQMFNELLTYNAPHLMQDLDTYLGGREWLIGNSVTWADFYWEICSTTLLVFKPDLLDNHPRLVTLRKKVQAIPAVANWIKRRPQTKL
In the case of “2-Phenyl-N-[1-(2,2,2- trifluoroethyl) piperidin-4-yl] pyrimidine-5- carboxamide [Example 9]”, the IC50 was 0.275 nM.

The same experiment, now with this note: IC50, 5.0 μM PGH2, 2.5 mM L-Glutathione, 10 min preincubation, 4-parameter fit, highest inhibitor concentration typically 1 μM.
For `Cc1nc(-c2ccccc2)ncc1C(=O)NC1CCN(CC2CCOCC2)CC1` [Example 7, 4-Methyl-2-phenyl-N-[1-(tetrahydro-2H-pyran-4-ylmethyl)piperidin-4-yl] pyrimidine-5-carboxamide], the 50% inhibitory concentration (IC50) stood at 30.4 nM.

Consider `N#Cc1cccc(OCC(c2ccccc2)N2CCC(NC(=O)c3cnc(-c4cccc(F)c4)nc3)CC2)c1` (stereo not shown) [Example 40, N-{1-[2-(3-Cyanophenoxy)-1-phenylethyl]piperidin-4-yl}-2-(3-fluorophenyl)pyrimidine-5-carboxamide], for which the IC50 was 3.02 nM.

For the compound `O=C(NC1CCN(C(COc2cccc(F)c2F)c2ccccc2)CC1)c1cnc(-c2cccc(F)c2)nc1` (stereo not shown) [Example 53, N-{1-[2-(2,3-Difluorophenoxy)-1-phenylethyl]piperidin-4-yl}-2-(3-fluorophenyl)pyrimidine-5-carboxamide], the IC50 was 59.2 nM.

In the case of `O=C(NC1CCN(CC(F)(F)F)CC1)c1cnc(-c2ccccc2)nc1O` [Example 22, 4-Hydroxy-2-phenyl-N-[1-(2,2,2-trifluoroethyl)piperidin-4-yl] pyrimidine-5-carboxamide], the IC50 is at least 1000 nM.

Turning to `CC(C)(C)OC(=O)N1C[C@H](NC(=O)c2cnc(-c3cccc(F)c3)nc2)[C@@H](F)C1` [Example 92, tert-Butyl (3S,4S)-3-fluoro-4-({[2-(3-fluorophenyl)pyrimidin-5-yl]carbonyl}amino)pyrrolidine-1-carboxylate], the IC50 is 2.87 nM.

Turning to `N#Cc1ccc(C(F)(F)F)nc1N1C[C@H](O)[C@H](NC(=O)c2cnc(-c3cccc(F)c3)nc2)C1` (relative stereo) [Example 100, Cis-N-{1-[3-Cyano-6-(trifluoromethyl)pyridin-2-yl]-4-hydroxypyrrolidin-3-yl}-2-(3-fluorophenyl)pyrimidine-5-carboxamide], the IC50 stood at 4.47 nM.

Regarding `N#Cc1cc(Cl)ccc1OCC(c1ccccc1)N1CCC(NC(=O)c2cnc(-c3cccc(F)c3)nc2)CC1` (stereo not shown) [Example 31, N-{1-[2-(4-Cchloro-2-cyanophenoxy)-1-phenylethyl]piperidin-4-yl}-2-(3-fluorophenyl)pyrimidine-5-carboxamide], the IC50 came out at 7.68 nM.

For `N#Cc1ccccc1C(=O)c1cccnc1N1C[C@H](O)[C@H](NC(=O)c2cnc(-c3cccc(F)c3)nc2)C1` (relative stereo) [Example 97, Cis-N-{1-[3-(2-Cyanobenzoyl)pyridin-2-yl]-4-hydroxypyrrolidin-3-yl}-2-(3-fluorophenyl)pyrimidine-5-carboxamide], the IC50 worked out at 3.83 nM.

With `CCOC(=O)N1CCC(NC(=O)c2cnc(-c3cccc(F)c3)nc2)C1` (single isomer, unassigned) [Example 82a, Ethyl 3-(2-(3-fluorophenyl)pyrimidine-5-carboxamido)pyrrolidine-1-carboxylate], the IC50 came to 1.92 nM.

For `N#Cc1ccc(OCC(c2ccccc2)N2CCC(NC(=O)c3cnc(-c4cccc(F)c4)nc3)CC2)cc1F` (stereo not shown) [Example 28, N-{1-[2-(4-Cyano-3-fluorophenoxy)-1-phenylethyl]piperidin-4-yl}-2-(3-fluorophenyl)pyrimidine-5-carboxamide], the IC50 was determined as 4.45 nM.

For `Cc1nc(-c2ccccc2)ncc1C(=O)NC1CCN(Cc2ccccn2)CC1` [Example 3, 4-Methyl-2-phenyl-N-[1-(pyridin-2-ylmethyl)piperidin-4-yl]pyrimidine-5-carboxamide], the IC50 came to 14.1 nM.

Regarding `O=C(NC1CCN(CC(F)(F)F)CC1)c1cnc(-c2cccc(F)c2)nc1` [Example 27, 2-(3-Fluorophenyl)-N-[1-(2,2,2-trifluoroethyl)piperidin-4-yl]pyrimidine-5-carboxamide], the half-maximal inhibitory concentration (IC50) was determined as 0.166 nM.

In the case of `Cc1ccc(F)c(OCC(c2ccccc2)N2CCC(NC(=O)c3cnc(-c4cccc(F)c4)nc3)CC2)c1` (stereo not shown) [Example 59, N-{1-[2-(2-Fluoro-5-methylphenoxy)-1-phenylethyl]piperidin-4-yl}-2-(3-fluorophenyl)pyrimidine-5-carboxamide], the IC50 was 8.16 nM.

Take `O=C(NC1CCN(C(COc2c(F)cc(F)cc2F)c2ccccc2)CC1)c1cnc(-c2cccc(F)c2)nc1` (stereo not shown) [Example 32, 2-(3-Fluorophenyl)-N-{1-[1-phenyl-2-(2,4,6-trifluorophenoxy)ethyl]piperidin-4-yl}pyrimidine-5-carboxamide]: the IC50 stood at 8.91 nM.

As to `Cc1cc(F)ccc1OCC(c1ccccc1)N1CCC(NC(=O)c2cnc(-c3cccc(F)c3)nc2)CC1` (stereo not shown) [Example 57, N-{1-[2-(4-Fluoro-2-methylphenoxy)-1-phenylethyl]piperidin-4-yl}-2-(3-fluorophenyl)pyrimidine-5-carboxamide], the IC50 was determined as 11.4 nM.

Regarding `O=C(NC1CCN(Cc2cccc(Cl)c2)C1=O)c1cnc(-c2cccc(F)c2)nc1` (stereo not shown) [Example 83, N-[1-(3-Chlorobenzyl)-2-oxopyrrolidin-3-yl]-2-(3-fluorophenyl)pyrimidine-5-carboxamide], the IC50 is 1.18 nM.

For `COc1cccc(OC)c1CN1CCC(NC(=O)c2cnc(-c3ccccc3)nc2N)CC1` [Example 17, 4-Amino-N-[1-(2,6-dimethoxybenzyl)piperidin-4-yl]-2-phenylpyrimidine-5-carboxamide], the IC50 stood at 19.3 nM.

Consider `Cc1cc(=O)[nH]c(N2CCC(NC(=O)c3cnc(-c4cccc(F)c4)nc3)CC2)n1` [Example 70, 2-(3-Fluorophenyl)-N-[1-(4-methyl-6-oxo-1,6-dihydropyrimidin-2-yl)piperidin-4-yl]pyrimidine-5-carboxamide], for which the IC50 came out at 0.962 nM.

Regarding `CCc1ccc(OCC(c2ccccc2)N2CCC(NC(=O)c3cnc(-c4cccc(F)c4)nc3)CC2)cc1` (stereo not shown) [Example 46, N-{1-[2-(4-Ethylphenoxy)-1-phenylethyl]piperidin-4-yl}-2-(3-fluorophenyl)pyrimidine-5-carboxamide], the IC50 turned out to be 23.8 nM.

With `O=C(N[C@@H]1CCN(Cc2ccccc2)C1)c1cnc(-c2cccc(F)c2)nc1` [Example 79, N-[(3R)-1-Benzylpyrrolidin-3-yl]-2-(3-fluorophenyl)pyrimidine-5-carboxamide], the half-maximal inhibitory concentration (IC50) was found to be 0.346 nM.

Take `NC(=O)c1cccnc1N1C[C@H](O)[C@H](NC(=O)c2cnc(-c3cccc(F)c3)nc2)C1` (relative stereo) [Example 99, Cis-N-{1-[3-(Aminocarbonyl)pyridin-2-yl]-4-hydroxypyrrolidin-3-yl}-2-(3-fluorophenyl)pyrimidine-5-carboxamide]: the IC50 amounted to 2.65 nM.

As to `Cc1nc(-c2ccccc2)ncc1C(=O)NC1CCN(C)CC1` [Example 4, 4-Methyl-N-(1-methylpiperid-4-yl)-2-phenylpyrimidine-5-carboxamide], the IC50 turned out to be 302 nM.

For `O=C(NC1CCN(C(COc2c(F)cccc2F)c2ccccc2)CC1)c1cnc(-c2cccc(F)c2)nc1` (stereo not shown) [Example 30, N-{1-[2-(2,6-Difluorophenoxy)-1-phenylethyl]piperidin-4-yl}-2-(3-fluorophenyl)pyrimidine-5-carboxamide], the IC50 came to 6.55 nM.

Turning to `O=C(NC1CCN(CC2CC2)CC1)c1cnc(-c2cccc(F)c2)nc1` [Example 35, N-[1-(Cyclopropylmethyl)piperidin-4-yl]-2-(3-fluorophenyl)pyrimidine-5-carboxamide], the IC50 worked out at 0.62 nM.

In the case of `O=C(NC1CCN(Cc2ccc(F)cc2)CC1)c1cnc(-c2cccc(F)c2)nc1` [Example 63, N-[1-(4-Fluorobenzyl)piperidin-4-yl]-2-(3-fluorophenyl)pyrimidine-5-carboxamide], the IC50 is 0.509 nM.

Turning to `O=C(NC1CCN(c2ncc3c(n2)CCOC3)CC1)c1cnc(-c2cccc(F)c2)nc1` [Example 76, N-[1-(7,8-Dihydro-5H-pyrano[4,3-d]pyrimidin-2-yl)piperidin-4-yl]-2-(3-fluorophenyl)pyrimidine-5-carboxamide], the IC50 was found to be 0.595 nM.

For `COc1cccc(OCC(c2ccccc2)N2CCC(NC(=O)c3cnc(-c4cccc(F)c4)nc3)CC2)c1` (stereo not shown) [Example 39, 2-(3-Fluorophenyl)-N-{1-[2-(3-methoxyphenoxy)-1-phenylethyl]piperidin-4-yl}pyrimidine-5-carboxamide], the IC50 is 4.44 nM.

As for `CC(=O)c1ccccc1-c1ncc(C(=O)NC2CCN(CC(F)(F)F)CC2)cn1` [Example 119, 2-(2-Acetylphenyl)-N-[1-(2,2,2-trifluoroethyl)piperidin-4-yl]pyrimidine-5-carboxamide], the IC50 came out at 9460 nM.

For the compound `CN1CCc2nc(N3CC[C@@H](NC(=O)c4cnc(-c5cccc(F)c5)nc4)C3)ncc2C1` [Example 78a, 2-(3-Fluorophenyl)-N-[(3R)-1-(6-methyl-5,6,7,8-tetrahydropyrido[4,3-d]pyrimidin-2-yl)pyrrolidin-3-yl]pyrimidine-5-carboxamide], the IC50 amounted to 13 nM.

Regarding `O=C(NC1CCN(C(COc2c(F)ccc(Cl)c2F)c2ccccc2)CC1)c1cnc(-c2cccc(F)c2)nc1` (stereo not shown) [Example 33, N-{1-[2-(3-Chloro-2,6-difluorophenoxy)-1-phenylethyl]piperidin-4-yl}-2-(3-fluorophenyl)pyrimidine-5-carboxamide], the IC50 is 15.5 nM.

Consider `O=C(NC1CCN(C(COc2c(F)cccc2Cl)c2ccccc2)CC1)c1cnc(-c2cccc(F)c2)nc1` (stereo not shown) [Example 29, N-{1-[2-(2-Chloro-6-fluorophenoxy)-1-phenylethyl]piperidin-4-yl}-2-(3-fluorophenyl)pyrimidine-5-carboxamide], for which the IC50 turned out to be 11.4 nM.

Consider `O=C(NC1CCN(Cc2cccc(F)c2)CC1)c1cnc(-c2cccc(F)c2)nc1` [Example 65, N-[1-(3-Fluorobenzyl)piperidin-4-yl]-2-(3-fluorophenyl)pyrimidine-5-carboxamide], for which the IC50 is 0.335 nM.

For `CNC(=O)N1CCC(NC(=O)c2cnc(-c3cccc(F)c3)nc2)CC1` [Example 25, 2-(3-Fluorophenyl)-N-{1-[(methylamino)carbonyl]piperidin-4-yl}pyrimidine-5-carboxamide], the IC50 is 0.373 nM.

The record behind these values is US8067589B2, “Heterocyclic compounds useful in treating diseases and conditions” (Pfizer Inc, priority 2007, dated 2011).
